This is an account of results in BindingDB's records for doi:10.1111/j.1747-0285.2009.00884.x (Pfizer, 2009).

pIC50: −log10 of the molar value. Where “and” joins values, the source holds several entries; their conditions need not be identical. Identical values can stand only once. Bounds are passed on as bounds.

In assay [1] the target is T1, Mitogen-activated protein kinase 14 (Homo sapiens, UniProt Q16539). Put plainly: Active p38alpha cascade assay. Particulars: pH 7.5; 25 °C. On the procedure:
The reaction was run for 15 min atroom temperature. […] Under such

Assay [2] deals with T1, Mitogen-activated protein kinase 14. Put plainly: Unactivated p38alpha cascade assay. Particulars: pH 7.5; 25 °C. The procedure: Binding of inhibitors to unactivated p38a that leads to decreasedphosphorylation of p38alpha by MKK6 was determined by measuringthe activated p38alpha activity in the assay mixture with andwithout inhibitors. In a 20-lL reaction mixture containing 50 mMHepes, pH 7.5, 1 mM EGTA, 10 mM MgCl2, 0.01% (w / v) Brij35 and 200 µM DTT, unactivated p38a (2 nM) was preincubatedwith inhibitors at various concentrations for 30 min at roomtemperature. Ten microliters of 1 mM ATP and 1 nM active MKK6were then introduced to initiate p38a activation. The reaction wasrun at room temperature for 15 min. The mixture was thenimmediately diluted 100-fold so that the inhibitor concentrationwas reduced by 2 orders of magnitude and residual inhibitoryeffect was minimized. The reaction product, active p38alpha, wasthen calculated based on its catalytic activity to activate MK2 asdescribed in Active p38a cascade assay section.

T1 sequence (Q16539 whole entry): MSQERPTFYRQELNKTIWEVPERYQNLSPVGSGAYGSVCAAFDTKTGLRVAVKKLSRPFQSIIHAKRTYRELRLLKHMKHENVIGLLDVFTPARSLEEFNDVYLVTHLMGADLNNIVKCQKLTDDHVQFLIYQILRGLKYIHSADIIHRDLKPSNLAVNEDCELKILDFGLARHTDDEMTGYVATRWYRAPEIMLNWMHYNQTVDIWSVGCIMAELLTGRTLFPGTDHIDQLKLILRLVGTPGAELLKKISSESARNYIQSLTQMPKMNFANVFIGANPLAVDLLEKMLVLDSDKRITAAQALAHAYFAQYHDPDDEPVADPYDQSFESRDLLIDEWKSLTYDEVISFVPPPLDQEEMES

`Cc1cc(C(=O)NC(C)(O)NCc2ccc(-n3nc(C(C)(C)C)cc3NC(=O)Nc3ccccc3)cc2)ccc1C(=O)O` (stereo not given) [(10a) BIRB796]: the figures for the pIC50 in assay [1] and in assay [2] were 6.58 and 8.15, respectively.

Consider `Cc1ccc(C(=O)NC(O)(NCc2ccc(-n3nc(C(C)(C)C)cc3NC(=O)Nc3cccc4ccccc34)cc2)C2CCCC2)cc1C(=O)O` (stereo not given) [(7b) BIRB796], for which the pIC50 in assay [1] was 5.95; in assay [2], 7.44.

`Cc1cc(C(=O)NCc2ccc(-n3nc(C(C)(C)C)cc3NC(=O)Nc3cccc4ccccc34)cc2)ccc1C(=O)O` [(8a) BIRB796]: the pIC50 in assay [1] is 6.41 and 6.18; in assay [2], 7.96 and 7.60.

With `CC(=O)c1cc(C(=O)NCc2ccc(-n3nc(C(C)(C)C)cc3NC(=O)Nc3cccc4ccccc34)cc2)ccc1C` [(5a) BIRB796], the values for the negative logarithm of the IC50 (pIC50) in assay [1] and in assay [2] were 6.03 and 8.10, respectively.

Consider `Cc1ccc(C(=O)NCc2ccc(-n3nc(C(C)(C)C)cc3NC(=O)Nc3cccc4ccccc34)cc2)cc1C(=O)O` [(7a) BIRB796], for which the figures for the pIC50 in assay [1] and in assay [2] were 6.16 and 7.96, respectively.

With `Brc1ccc(-c2c[nH]c(-c3cc4ccccc4cn3)n2)cc1` [PF-04764755], the pIC50 in assay [1] is 5.53; in assay [2], 6.49.

For the compound `Clc1cccc(-c2c[nH]c(-c3cc4ccccc4cn3)n2)c1` [PF-00240292], the values for the pIC50 in assay [1] and in assay [2] were less than 4.90 and 5.64, respectively.

With `Cc1cc(C(=O)NC(=O)NCc2ccc(-n3nc(C(C)(C)C)cc3NC(=O)Nc3ccccc3)cc2)ccc1C(=O)O` [(12a) BIRB796], the pIC50 is 5.80 in assay [1] and 7.28 in assay [2].

Turning to `NCCC(=O)c1cccc(Oc2cccc(C(=O)CCN)c2)c1` [UK-146015], the pIC50 in assay [1] is less than 4.90; in assay [2], 5.22.

Consider `Cc1cc(C(=O)[n+]2cccc(C(=O)NCc3ccc(-n4nc(C(C)(C)C)cc4NC(=O)Nc4ccccc4)cc3)c2)ccc1C(=O)O` [(12b) BIRB796], for which the pIC50 was 5.83 in assay [1] and 7.21 in assay [2].

In the case of `Clc1ccc(-c2c[nH]c(-c3cc4ccccc4cn3)n2)cc1` [PF-00215924], the pIC50 in assay [1] was 8.74; in assay [2], 6.96.

Regarding `CC(=O)c1cc(C(=O)NC(O)(NCc2ccc(-n3nc(C(C)(C)C)cc3NC(=O)Nc3cccc4ccccc34)cc2)C2CCCC2)ccc1C` (stereo not given) [(5b) BIRB796], the pIC50 was 5.96 in assay [1] and 7.59 in assay [2].

Turning to `Cc1ccc(C(=O)NC(C)(O)NCc2ccc(-n3nc(C(C)(C)C)cc3NC(=O)Nc3ccccc3)cc2)cc1C(=O)O` (stereo not given) [(9a) BIRB796], the pIC50 was 6.42 in assay [1] and 8.22 in assay [2].

Take `Cc1ccc(C(=O)NC(=O)NCc2ccc(-n3nc(C(C)(C)C)cc3NC(=O)Nc3ccccc3)cc2)cc1C(=O)O` [(11a) BIRB796]: the pIC50 is 5.97 in assay [1] and 7.96 in assay [2].

As to `Cc1ccc(C(=O)[n+]2cccc(C(=O)NCc3ccc(-n4nc(C(C)(C)C)cc4NC(=O)Nc4ccccc4)cc3)c2)cc1C(=O)O` [(11b) BIRB796], the negative logarithm of the IC50 (pIC50) was 5.92 in assay [1] and 7.46 in assay [2].

`Brc1ccc(-c2c[nH]c(-c3cc4ccccc4cn3)n2)cc1` [PF-00215937]: in assay [1], the negative logarithm of the IC50 (pIC50) was 5.72 and < 4.90.

Turning to `Cc1ccc(C(=O)NC(O)(NC(=O)NCc2ccc(-n3nc(C(C)(C)C)cc3NC(=O)Nc3ccccc3)cc2)C2CCCC2)cc1C(=O)O` (stereo not given) [(9b) BIRB796], the pIC50 is 6.09 in assay [1] and 7.66 in assay [2].

As for `O=S1(=O)N=c2ccc3c4c(c5ccccc5c(c24)O1)OS(=O)(=O)N=3` [CP-232880], the figures for the negative-log IC50 (pIC50) in assay [1] and in assay [2] were 5.68 and 5.99, respectively.

As a reminder, the pIC50 is −log10 of the IC50, conventionally taken in molar units.
